Measured values from PMC12610274, “Identification of Marrubiin as a Cathepsin C Inhibitor for Treating Rheumatoid Arthritis” (Molecules, 2025).

Columns and labels:
PR3 [1] = experiment: NSPs activity in U937 cells after 5 days of treatment, PR3; type: cell-based, human; details: U937, 10 μM
Experimental: (§1) U937 cells in the logarithmic growth phase were collected and equally divided into six portions. Four of these portions were treated with DMSO solutions of the test compound at varying concentrations to achieve final concentrations of 1.25, 2.5, 5, and 10 μM, respectively. An equal volume of DMSO was added to one portion as a blank control, while another portion treated with a DMSO solution of AZD7986 served as a positive control. The cells were cultured under standard U937 conditions for 5 consecutive days, with daily medium changes and fresh compound treatments administered using the same protocol. Following 5 days of treatment, cells were harvested, washed twice thoroughly with phosphate-buffered saline, and lysed in phosphate-buffered saline containing 1% Triton X-100. The lysates were centrifuged to collect the supernatant, and protein concentrations were determined as previously described to ensure equal total protein loading across all samples. The prepared samples were stored at −20 °C until further analysis. Different assay buffers were prepared for diluting samples and measuring the activities of specific NSPs: a buffer containing 50 mM Tris and 750 mM NaCl (pH 7.4) was used for NE and PR3; a buffer containing 50 mM Tris, 750 mM NaCl, 5 mM EDTA (pH 7.4) was used for Cat G; and a buffer containing 25 mM MES, 50 mM NaCl, 5 mM DTT (pH 6.0) was used for CTSC. […]

Cat G [2] = experiment: Cat G activity in blood and bone marrow of mice; type: in vivo, C57BL/6 mice; details: 30 mg/kg daily gavage, 7 days
Experimental: (§2) A total of 25 C57BL/6 mice (6–8 weeks old, weighing approximately 20 g, with equal numbers of males and females) were randomly divided into five groups. Mice in the compound-treated groups were orally administered the compound once daily at doses of 0.3, 3, and 30 mg/kg for 7 consecutive days. […] Mice in the normal group were given an equal volume of normal saline at the same time points. The body weight, death rate, and behavior were observed and recorded daily for one week. After 7 days, bone marrow and blood samples were collected from the mice and lysed using 8% Triton X-100 buffer. The lysates were stored at −20 °C until testing. The activity assays for CTSC and NSPs were performed as described above. The mice were anesthetized and the tissues were taken for H&E staining.

PR3 [3] = experiment: PR3 activity in blood and bone marrow of mice; type: in vivo, C57BL/6 mice; details: 30 mg/kg daily gavage, 7 days
Experimental: as §2

Cat G [4] = biological target: T1, Cat G (Homo sapiens, UniProt P08311); experiment: Recombinant NSPs isolated enzyme assay, Cat G; type: biochemical; details: read-out: Cat G Enz (IC50: μM)
T1 construct: purchased MedChemExpress
T1 sequence (P08311 21-255): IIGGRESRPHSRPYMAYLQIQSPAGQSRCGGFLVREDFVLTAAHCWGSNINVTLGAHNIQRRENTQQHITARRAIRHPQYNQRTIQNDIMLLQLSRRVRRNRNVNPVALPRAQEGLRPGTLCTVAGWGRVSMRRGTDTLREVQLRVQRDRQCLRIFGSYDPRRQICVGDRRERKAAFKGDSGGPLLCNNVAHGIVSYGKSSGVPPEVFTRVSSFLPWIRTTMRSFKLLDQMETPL
Text: The protocol for evaluating the inhibitory potency of compounds against other cathepsins referred to the CTSC activity assay. Recombinant human CTSB, CTSL, CTSS and CTSK for testing were also purchased from R&D Systems Biotechnology Company. Recombinant human Cat G, NE, and PR3 For testing were purchased from MedChemExpress. A multi-functional microplate reader was used to measure the absorption of Z-Leu-Arg-AMC at excitation/emission wavelengths of 380/460 nm to assess the activity changes of CTSB and CTSL, while the absorption of MCA-Arg-Pro-Lys-Pro-Val-Glu-NVAL-Trp-Arg-Lys(DNP)-NH2 at 320/405 nm was measured to evaluate the activity changes of CTSS and CTSK. Different assay buffers were prepared for diluting samples and measuring the activities of specific NSPs: a buffer containing 50 mM Tris and 750 mM NaCl (pH 7.4) was used for NE and PR3; a buffer containing 50 mM Tris, 750 mM NaCl, 5 mM EDTA (pH 7.4) was used for Cat G; and a buffer containing 25 mM MES, 50 mM NaCl, 5 mM DTT (pH 6.0) was used for CTSC. Synthetic substrates were employed to assess the activities of NSPs and CTSC: H-Gly-Arg-AMC for CTSC, N-MeSuc-Ala-Ala-Pro-Val-pNA for NE, aminobenzoyl-Val-Ala-Asp-Cys-Ala-Asp-Gln-ethylenediamine 2,4-dinitrophenyl for PR3, and N-Suc-Ala-Ala-Pro-Phe-pNA for Cat G. Each group of tests was independently repeated at least 3 times, and IC50 values were calculated using SPSS 10.0.

CTSC = CTSC (Homo sapiens, UniProt P53634); experiment: CTSC activity in U937 cells after 5 days of treatment; type: cell-based; design: endogenous in cells; host or cells: U937; details: U937, 5 days, marrubiin and AZD7986 at the same concentration
Sequence of CTSC (P53634 25-463): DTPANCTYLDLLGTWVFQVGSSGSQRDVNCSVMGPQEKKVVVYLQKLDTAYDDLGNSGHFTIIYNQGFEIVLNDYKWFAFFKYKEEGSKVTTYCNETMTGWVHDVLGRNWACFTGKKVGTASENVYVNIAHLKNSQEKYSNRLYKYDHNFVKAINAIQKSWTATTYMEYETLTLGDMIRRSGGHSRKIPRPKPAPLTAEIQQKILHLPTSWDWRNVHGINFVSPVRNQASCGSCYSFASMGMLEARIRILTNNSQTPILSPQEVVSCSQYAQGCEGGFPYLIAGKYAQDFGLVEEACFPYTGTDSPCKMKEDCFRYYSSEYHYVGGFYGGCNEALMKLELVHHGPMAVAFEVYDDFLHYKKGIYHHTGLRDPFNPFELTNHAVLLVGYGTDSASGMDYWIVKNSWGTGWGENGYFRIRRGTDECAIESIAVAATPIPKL
Experimental: as §1

[5] = system: IL-1β, TNF-α, MCP-1, CXCL2 in serum; experiment: AIA model, serum cytokines by ELISA; type: in vivo, Sprague-Dawley rats; details: rat AIA, high-dose group (60 mg/kg)
Experimental: Thirty 4-week-old male Sprague-Dawley rats (weighing 120–130 g) were randomly divided into 6 groups (5 rats per group) after 1 week of adaptive feeding, namely the normal group, model group, low-dose experimental group (15 mg/kg), medium-dose experimental group (30 mg/kg), high-dose experimental group (60 mg/kg), and positive control group (30 mg/kg). Starting from Day 0 of the experiment, rats in the administration groups and model group were injected intradermally with 0.1 mL of CFA into the left hind paw to induce AIA, while rats in the normal group were injected intradermally with an equal volume (0.1 mL) of normal saline as a control. After 13 consecutive days of feeding, rats treated with CFA successfully developed typical AIA symptoms. […] During the experiment, the body weight, mental state, activity ability, hair color changes, and paw appearance changes of the rats were observed and recorded daily. In addition, on Day 0 of the experiment (baseline period), the basic paw volume of all rats was accurately measured using a plethysmometer, which served as a reference standard for subsequent evaluation of inflammation severity. From Day 13 to Day 28 of the experiment, the paw volume of the rats was measured repeatedly every 3 days. The degree of paw swelling was quantified by calculating the change in paw volume relative to the baseline. […] The cytokine levels in serum were measured. […]

SMILES: C[C@@H]1C[C@H]2OC(=O)[C@@]3(C)CCC[C@@](C)([C@@H]23)[C@@]1(O)CCc1ccoc1 [Marrubiin, marrubiin]
- PR3 activity, % of DMSO group (PR3 [1]): 10.3%
- remaining activity rate of Cat G (Cat G [2]; blood): ~35.5%
- remaining activity rate of Cat G (Cat G [2]; bone marrow): ~40.2%
- remaining activity rate of PR3 (PR3 [3]; blood): ~13.6%
- remaining activity rate of PR3 (PR3 [3]; bone marrow): ~25.8%
- IC50 (Cat G [4]): > 10 µM
- residual CTSC activity (CTSC): less than 8%
- serum levels of IL-1β, TNF-α, MCP-1, CXCL2 [5]: significantly lower than those in model group and control group
